{"source": "ChEMBL document CHEMBL1201862", "about": "“PubChem BioAssay data set” (2004)", "key": {"SN12K1": {"tested_on": "SN12K1", "assay": "cells", "format": "functional", "details": "Homo sapiens"}, "[1]": {"target": "SWI/SNF-related matrix-associated actin-dependent regulator of chromatin subfamily A member 2 (Homo sapiens, UniProt P51531)", "sequence (P51531 whole entry)": "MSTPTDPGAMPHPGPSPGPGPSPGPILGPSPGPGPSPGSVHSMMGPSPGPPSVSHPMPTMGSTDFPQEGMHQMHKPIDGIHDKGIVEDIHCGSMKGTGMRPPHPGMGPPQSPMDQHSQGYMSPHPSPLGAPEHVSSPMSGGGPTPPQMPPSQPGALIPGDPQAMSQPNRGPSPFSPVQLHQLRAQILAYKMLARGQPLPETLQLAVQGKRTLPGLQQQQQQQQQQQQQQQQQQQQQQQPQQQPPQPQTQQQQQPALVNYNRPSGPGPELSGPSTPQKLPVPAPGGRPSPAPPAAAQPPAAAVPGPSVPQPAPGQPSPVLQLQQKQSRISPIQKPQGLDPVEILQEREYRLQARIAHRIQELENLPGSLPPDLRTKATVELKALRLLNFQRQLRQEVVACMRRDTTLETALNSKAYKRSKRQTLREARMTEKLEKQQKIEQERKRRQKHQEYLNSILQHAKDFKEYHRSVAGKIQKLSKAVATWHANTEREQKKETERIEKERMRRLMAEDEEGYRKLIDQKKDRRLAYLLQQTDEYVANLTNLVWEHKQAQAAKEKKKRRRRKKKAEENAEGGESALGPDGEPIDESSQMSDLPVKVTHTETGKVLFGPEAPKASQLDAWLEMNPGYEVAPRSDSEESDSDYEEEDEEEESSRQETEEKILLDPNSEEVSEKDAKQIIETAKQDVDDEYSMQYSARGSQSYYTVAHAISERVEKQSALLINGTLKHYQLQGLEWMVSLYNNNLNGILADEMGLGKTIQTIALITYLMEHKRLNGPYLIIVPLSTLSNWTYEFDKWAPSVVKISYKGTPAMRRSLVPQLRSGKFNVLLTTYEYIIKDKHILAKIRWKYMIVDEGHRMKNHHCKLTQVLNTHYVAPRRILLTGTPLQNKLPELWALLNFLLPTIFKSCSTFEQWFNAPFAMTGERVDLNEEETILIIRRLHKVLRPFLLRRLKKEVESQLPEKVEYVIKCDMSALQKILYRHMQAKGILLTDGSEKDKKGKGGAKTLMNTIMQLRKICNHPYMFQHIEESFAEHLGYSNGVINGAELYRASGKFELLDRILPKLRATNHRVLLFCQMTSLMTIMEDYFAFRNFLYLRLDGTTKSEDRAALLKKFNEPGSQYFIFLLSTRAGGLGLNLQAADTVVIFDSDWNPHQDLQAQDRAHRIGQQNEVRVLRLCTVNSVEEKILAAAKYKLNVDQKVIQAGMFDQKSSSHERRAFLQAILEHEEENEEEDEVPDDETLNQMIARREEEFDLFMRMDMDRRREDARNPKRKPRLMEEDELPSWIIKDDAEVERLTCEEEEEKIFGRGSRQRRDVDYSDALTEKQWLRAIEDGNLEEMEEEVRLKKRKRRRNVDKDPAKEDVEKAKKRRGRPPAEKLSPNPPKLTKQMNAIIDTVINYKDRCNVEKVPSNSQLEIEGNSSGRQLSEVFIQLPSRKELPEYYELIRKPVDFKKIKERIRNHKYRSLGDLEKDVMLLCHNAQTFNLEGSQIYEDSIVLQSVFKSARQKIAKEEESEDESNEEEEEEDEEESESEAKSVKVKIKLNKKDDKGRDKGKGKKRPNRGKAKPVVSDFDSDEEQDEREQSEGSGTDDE", "assay": "Luminescence-based cell-based high throughput dose response assay to identify activators of the function of SWI/SNF related, matrix associated, actin dependent regulator of chromatin, subfamily a, member 2 (SMARCA2, BRM).", "format": "functional"}, "[2]": {"assay": "ZM109 Env clade C HIV-1 fusion inhibitors, dose response, HeLa effector, CEM target cells, luciferase, cherry-pick (AID 652058)", "format": "functional, cell-based"}, "[3]": {"assay": "Counterscreen for activators of the function of SWI/SNF related, matrix associated, actin dependent regulator of chromatin, subfamily a, member 2 (SMARCA2, BRM): Luminescence-based cell-based high throughput dose response assay to identify non-selective compounds using the VP16 reporter assay.", "format": "functional"}, "[4]": {"assay": "CEM21 lymphoblast cell cytotoxicity, dose response, cytotoxicity control for viral fusion inhibitor project, CellTiter-Glo luminescence, cherry-picked (AID 652042);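 further: potency for signal decrease meaning cytotoxicity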", "format": "functional, cell-based"}, "[5]": {"assay": "inhibitors of clade B AD8 Env fusion, dose response, cell-based, cherry-pick (AID 652062);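 further: potency is for inhibitors of fusion seen as a drop in luminescence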", "format": "functional"}, "[6]": {"target": "Cyclin-dependent kinase 5/CDK5 activator 1 (Homo sapiens, UniProt Q00535)", "sequence (Q00535 whole entry)": "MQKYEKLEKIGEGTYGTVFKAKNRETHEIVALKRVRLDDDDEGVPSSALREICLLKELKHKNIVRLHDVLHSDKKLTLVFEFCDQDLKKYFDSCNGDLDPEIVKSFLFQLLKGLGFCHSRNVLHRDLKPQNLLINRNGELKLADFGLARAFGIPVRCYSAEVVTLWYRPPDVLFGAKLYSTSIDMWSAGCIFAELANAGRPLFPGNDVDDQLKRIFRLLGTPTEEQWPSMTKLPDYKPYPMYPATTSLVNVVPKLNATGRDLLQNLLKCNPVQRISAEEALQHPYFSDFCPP", "sequence (Q15078 whole entry, further chain)": "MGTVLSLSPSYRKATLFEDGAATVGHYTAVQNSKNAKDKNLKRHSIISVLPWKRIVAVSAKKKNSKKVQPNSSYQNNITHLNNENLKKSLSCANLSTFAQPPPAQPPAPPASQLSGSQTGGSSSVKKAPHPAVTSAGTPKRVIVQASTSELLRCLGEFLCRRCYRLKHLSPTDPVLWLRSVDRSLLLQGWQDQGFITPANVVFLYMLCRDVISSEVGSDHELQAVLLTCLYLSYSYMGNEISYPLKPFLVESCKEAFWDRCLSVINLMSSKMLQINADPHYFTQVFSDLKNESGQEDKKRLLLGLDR", "assay": "CDK5/p35 kinase inhibitors, dose response, biochemical, cherry-picked samples, set 2 (AID 504545)"}, "[7]": {"assay": "inhibitors of HIV Env-driven cell fusion, dose response, cherry-pick (AID 652057)", "format": "functional, cell-based"}, "[8]": {"assay": "off-target signal loss in HeLa-CEM21 co-culture – HeLa F-luc CTL cells, cherry-picked, counter-screen for HIV-1 Env fusion inhibitor project, dose response (AID 652040);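 further: potency for signal decrease marking cytotoxic or nonspecific inhibition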", "format": "functional, cell-based"}, "[9]": {"target": "Female germline-specific tumor suppressor gld-1 (Caenorhabditis elegans, UniProt Q17339)", "sequence (Q17339 whole entry)": "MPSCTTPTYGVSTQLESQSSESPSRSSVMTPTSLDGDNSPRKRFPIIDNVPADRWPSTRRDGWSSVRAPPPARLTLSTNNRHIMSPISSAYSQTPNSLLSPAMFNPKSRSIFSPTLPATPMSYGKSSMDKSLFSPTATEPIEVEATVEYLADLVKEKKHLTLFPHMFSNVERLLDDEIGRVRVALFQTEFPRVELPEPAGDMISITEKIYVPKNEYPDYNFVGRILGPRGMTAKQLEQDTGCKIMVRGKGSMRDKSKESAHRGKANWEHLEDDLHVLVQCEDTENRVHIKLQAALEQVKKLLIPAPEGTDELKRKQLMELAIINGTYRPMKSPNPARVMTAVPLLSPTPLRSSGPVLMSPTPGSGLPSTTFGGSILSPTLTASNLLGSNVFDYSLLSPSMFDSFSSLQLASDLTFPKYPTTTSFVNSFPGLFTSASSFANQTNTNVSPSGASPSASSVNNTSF", "assay": "inhibitors of GLD-1 binding to TGE RNA, dose response, biochemical, fluorescence polarization, C. elegans (AID 2802);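 further: fluorescence polarization of labeled TGE RNA bound by purified gld-1 protein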"}, "Protein Rev": {"target": "Protein Rev (Human immunodeficiency virus type 1 group M subtype B (isolate HXB2)(HIV-1), UniProt P04618)", "sequence (P04618 whole entry)": "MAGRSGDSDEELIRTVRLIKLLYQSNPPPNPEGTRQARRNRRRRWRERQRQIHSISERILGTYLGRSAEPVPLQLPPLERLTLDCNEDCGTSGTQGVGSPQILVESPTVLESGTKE", "assay": "inhibitors of Rev binding to RRE RNA, dose response, biochemical, fluorescence polarization, HIV-1 (AID 434976)", "design": "species or system Human immunodeficiency virus 1"}, "X-box-binding protein 1": {"target": "X-box-binding protein 1 (Homo sapiens, UniProt P17861)", "sequence (P17861 whole entry)": "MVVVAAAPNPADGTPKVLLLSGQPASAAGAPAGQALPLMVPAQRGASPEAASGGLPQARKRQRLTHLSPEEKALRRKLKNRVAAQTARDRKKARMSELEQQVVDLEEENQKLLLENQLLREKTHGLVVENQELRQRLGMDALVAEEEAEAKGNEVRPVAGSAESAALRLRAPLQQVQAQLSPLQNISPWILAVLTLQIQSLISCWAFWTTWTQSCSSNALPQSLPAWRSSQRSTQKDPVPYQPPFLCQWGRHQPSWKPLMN", "format": "functional, Cricetulus griseus"}, "SUMO-activating enzyme [10]": {"target": "T1, SUMO-activating enzyme (Homo sapiens, UniProt Q9UBT2)", "T1 sequence (Q9UBE0 whole entry)": "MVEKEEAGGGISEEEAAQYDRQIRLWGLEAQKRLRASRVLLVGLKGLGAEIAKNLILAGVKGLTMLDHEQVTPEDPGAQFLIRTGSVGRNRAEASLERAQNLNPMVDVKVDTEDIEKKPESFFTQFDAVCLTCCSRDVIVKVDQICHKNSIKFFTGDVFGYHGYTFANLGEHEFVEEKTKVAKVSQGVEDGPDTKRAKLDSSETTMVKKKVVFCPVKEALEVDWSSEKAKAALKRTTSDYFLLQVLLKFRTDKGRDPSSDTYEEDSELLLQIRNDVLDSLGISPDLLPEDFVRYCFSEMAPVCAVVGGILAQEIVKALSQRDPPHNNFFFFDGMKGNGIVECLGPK", "T1 sequence (Q9UBT2 whole entry)": "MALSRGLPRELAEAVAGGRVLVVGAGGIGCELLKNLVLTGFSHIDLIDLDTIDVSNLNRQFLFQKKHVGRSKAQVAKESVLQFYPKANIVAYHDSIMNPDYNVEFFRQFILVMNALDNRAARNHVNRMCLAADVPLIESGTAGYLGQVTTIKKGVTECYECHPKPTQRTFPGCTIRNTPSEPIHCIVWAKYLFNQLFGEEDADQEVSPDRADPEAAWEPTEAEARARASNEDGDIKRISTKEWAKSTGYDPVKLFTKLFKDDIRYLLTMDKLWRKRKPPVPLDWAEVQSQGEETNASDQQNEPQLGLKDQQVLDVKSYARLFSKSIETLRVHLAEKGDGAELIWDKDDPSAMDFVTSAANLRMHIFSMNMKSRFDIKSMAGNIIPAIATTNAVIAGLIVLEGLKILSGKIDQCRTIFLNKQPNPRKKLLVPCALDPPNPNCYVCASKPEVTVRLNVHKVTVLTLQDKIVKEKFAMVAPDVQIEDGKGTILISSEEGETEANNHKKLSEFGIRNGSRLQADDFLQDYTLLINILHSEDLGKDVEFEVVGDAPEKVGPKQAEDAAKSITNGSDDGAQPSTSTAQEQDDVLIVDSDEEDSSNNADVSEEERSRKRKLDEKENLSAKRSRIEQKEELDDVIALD", "assay": "inhibitors of in vitro SUMOylation cascade, primary screen, biochemical, HTRF, uHTS (AID 2006)", "format": "protein-complex assay"}, "[11]": {"target": "Eukaryotic translation initiation factor 4E (Mus musculus, UniProt P63073)", "sequence (P63073 whole entry)": "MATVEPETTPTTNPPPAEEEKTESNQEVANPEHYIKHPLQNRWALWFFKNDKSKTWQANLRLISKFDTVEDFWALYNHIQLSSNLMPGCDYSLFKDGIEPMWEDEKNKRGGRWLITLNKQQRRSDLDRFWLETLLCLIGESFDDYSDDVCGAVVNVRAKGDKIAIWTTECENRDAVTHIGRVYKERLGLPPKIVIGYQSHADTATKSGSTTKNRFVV", "assay": "eIF4E–eIF4G protein interaction inhibitors, dose response, biochemical, TR-FRET (AID 855);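 further: potency for disrupting eIF4E binding to eIF4GI seen as loss of FRET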", "format": "functional"}, "[12]": {"target": "Long-chain-fatty-acid--AMP ligase FadD28 (Mycobacterium tuberculosis, UniProt P9WQ59)", "sequence (P9WQ59 whole entry)": "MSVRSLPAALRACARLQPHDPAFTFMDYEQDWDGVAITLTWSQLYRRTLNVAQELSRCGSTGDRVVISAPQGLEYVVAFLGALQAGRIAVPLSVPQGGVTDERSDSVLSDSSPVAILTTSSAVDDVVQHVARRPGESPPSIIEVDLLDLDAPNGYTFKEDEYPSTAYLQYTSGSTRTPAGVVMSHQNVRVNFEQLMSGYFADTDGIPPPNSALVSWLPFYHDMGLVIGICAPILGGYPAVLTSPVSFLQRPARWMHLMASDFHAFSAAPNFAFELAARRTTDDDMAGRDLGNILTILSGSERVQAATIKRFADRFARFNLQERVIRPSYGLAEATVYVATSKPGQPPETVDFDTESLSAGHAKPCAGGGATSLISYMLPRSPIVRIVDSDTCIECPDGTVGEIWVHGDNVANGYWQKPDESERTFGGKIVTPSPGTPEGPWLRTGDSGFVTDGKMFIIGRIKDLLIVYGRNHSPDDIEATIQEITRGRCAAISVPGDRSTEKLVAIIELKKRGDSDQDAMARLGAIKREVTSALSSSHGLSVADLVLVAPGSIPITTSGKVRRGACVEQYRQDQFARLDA", "assay": "Fluorescence polarization aasay to screen for inhibitors that compete for the binding of FadD28 to a bisubstrate Measured in Biochemical System Using Plate Reader - 2147-01_Inhibitor_Dose_CherryPick_Activity.", "format": "functional, Mycobacterium tuberculosis H37Rv"}, "SUMO-activating enzyme [13]": {"target": "T1, SUMO-activating enzyme", "assay": "SUMOylation inhibitor hit validation, confirmation, SUMOylation inhibitor project, biochemical, AlphaScreen (AID 2018)", "format": "functional"}}, "note": "Active and inactive are the calls of the source.", "data": [{"molecule": "N#Cc1cn(C2OC(CO)C(O)C2O)c2ncnc(N)c12", "note": "(stereo unspecified);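 on Absolute IC50 (XBP1): confirmatory dose-response counter-screen serving a CHOP assay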", "values": [{"measurement": "GI50", "setting": "SN12K1", "result": "0.0425 µM (active)"}, {"measurement": "EC50", "setting": "[1]", "result": "> 91.2 µM (inactive)"}, {"measurement": "AC50", "setting": "[2]", "result": "< 0.26 µM (active)"}, {"measurement": "EC50", "setting": "[3]", "result": "> 91.2 µM (inactive)"}, {"measurement": "AC50", "setting": "[4]", "result": "< 0.26 µM (active)"}, {"measurement": "AC50", "setting": "[5]", "result": "0.621 µM (active)"}, {"measurement": "AC50", "setting": "[6]", "result": "5.59 µM (active)"}, {"measurement": "AC50", "setting": "[7]", "result": "< 0.26 µM (active)"}, {"measurement": "AC50", "setting": "[8]", "result": "1.39 µM (active)"}]}, {"molecule": "Nc1c(-c2cccc([N+](=O)[O-])c2)nc2ccccn12", "values": [{"measurement": "IC50", "setting": "[9]", "result": "7.64 µM (active)"}, {"measurement": "IC50", "setting": "Protein Rev", "result": "> 75.5 µM (not active)"}]}, {"molecule": "CC(C)(C)c1ccc(NC(=O)Nc2ccc(F)cc2)cc1", "values": [{"measurement": "Absolute IC50 (XBP1)", "setting": "X-box-binding protein 1", "result": 10, "unit": "µM"}]}, {"molecule": "Cc1ccc(NC(=O)CN2C(=O)S/C(=C/c3ccc(O)c([N+](=O)[O-])c3)C2=O)cc1C", "values": [{"measurement": "IC50", "setting": "SUMO-activating enzyme [10]", "result": "20.9 µM (active)"}, {"measurement": "IC50", "setting": "[11]", "result": "50 µM (inactive)"}, {"measurement": "AC50", "setting": "[12]", "result": "7.6 µM (active)"}, {"measurement": "IC50", "setting": "SUMO-activating enzyme [13]", "result": "5.08 µM (active)"}]}]}
